One assay has as its system DU145 cells. The assay can be described thus: Proliferation assay (DU145 cell line). Type of assay: cell-based. The conditions noted are these: read-out: Biological Assay 2: Proliferation assay (DU145 cell line) median IC50. How it is done:
(§1) Cultivated tumor cells (cells were ordered from ATCC, except HeLa-MaTu and HeLa-MaTu-ADR, which were ordered from EPO-GmbH, Berlin) were plated at a density of 1000 to 5000 cells/well, depending on the growth rate of the respective cell line, in a 96-well multititer plate in 200 μL of their respective growth medium supplemented 10% fetal calf serum. After 24 hours, the cells of one plate (zero-point plate) were stained with crystal violet (see below), while the medium of the other plates was replaced by fresh culture medium (200 μl), to which the test substances were added in various concentrations (0 μM, as well as in the range of 0.001-10 μM; the final concentration of the solvent dimethyl sulfoxide was 0.5%). The cells were incubated for 4 days in the presence of test substances. Cell proliferation was determined by staining the cells with crystal violet: the cells were fixed by adding 20 μl/measuring point of an 11% glutaric aldehyde solution for 15 minutes at room temperature. After three washing cycles of the fixed cells with water, the plates were dried at room temperature. The cells were stained by adding 100 μl/measuring point of a 0.1% crystal violet solution (pH 3.0). After three washing cycles of the stained cells with water, the plates were dried at room temperature. The dye was dissolved by adding 100 μl/measuring point of a 10% acetic acid solution. […] The change of cell number, in percent, was calculated by normalization of the measured values to the aborbtion values of the zero-point plate (=0%) and the absorbtion of the untreated (0 μm) cells (=100%). The IC50 values were determined by means of a 4 parameter fit using the company's own software.

The test system of another assay is HeLa-MaTu-ADR cells. The assay can be described thus: Proliferation assay (HeLa-MaTu-ADR cell line). Type of assay: cell-based. As to conditions: read-out: Biological Assay 2: Proliferation assay (HeLa-MaTu-ADR cell line) median IC50. How it is done: as §1
In assay [1] the target is catalytic domain of human Bub1 (amino acids 704-1085) (Homo sapiens (Human), UniProt O43683). The experiment in a line: Bub1 kinase assay (TR-FRET). The format is biochemical. The conditions noted are these: 10 μM ATP, 1 μM peptide substrate; read-out: Biological Assay 1: Bub1 kinase assay median IC50. The method, boiled down: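 Phosphoserine product detected by TR-FRET (Eu-labeled anti-mouse IgG/anti-phosphoserine antibody to streptavidin-XL665) after 1 h at 22 °C. IC50 from 4-parameter logistic fit.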

A further assay has as its system Caco2 cells. The assay can be described thus: Proliferation assay (Caco2 cell line). The format is cell-based. As to conditions: read-out: Biological Assay 2: Proliferation assay (Caco2 cell line) median IC50. On the procedure: as §1
The test system of the next assay is NCI-H460 cells. The assay can be described thus: Proliferation assay (H460 cell line). Type of assay: cell-based. As to conditions: read-out: Biological Assay 2: Proliferation assay (H460 cell line) median IC50. How it is done:
as §1

The next assay concerns HeLa cells. The assay can be described thus: Proliferation assay (HeLa cell line). Type of assay: cell-based. The conditions noted are these: read-out: Biological Assay 2: Proliferation assay (HeLa cell line) median IC50.
Another assay deals with B16F10 cells. The assay can be described thus: Proliferation assay (B16F10 cell line). The conditions noted are these: read-out: Biological Assay 2: Proliferation assay (B16F10 cell line) median IC50. The format is cell-based. How it is done:
as §1

Where [2] appears, read: Homo sapiens, DU-145, 96 h, DU145, 4 days, crystal violet.
The mark [3] stands for this setting: 96 h, HeLa-MaTu-ADR, 4 days, crystal violet.
The mark [4] stands for this setting: Homo sapiens, Caco-2, 96 h, Caco2, 4 days, crystal violet.
Setting [5] is: Homo sapiens, NCI-H460, 96 h, H460, 4 days, crystal violet.
Setting [6] is: Homo sapiens, 96 h, 4 days, crystal violet.
Where [7] appears, read: Mus musculus, B16-F10, 96 h, B16F10, 4 days, crystal violet.
Where [8] appears, read: HeLa-MaTu-ADR, 4 days, crystal violet.

Where a name gives a salt, the structure may show the parent alone. Read-outs that look alike come from different tables or passages of the source. A value given as a limit tells only on which side of the number the result lay.

Chain of catalytic domain of human Bub1 (amino acids 704-1085) (O43683 704-1085): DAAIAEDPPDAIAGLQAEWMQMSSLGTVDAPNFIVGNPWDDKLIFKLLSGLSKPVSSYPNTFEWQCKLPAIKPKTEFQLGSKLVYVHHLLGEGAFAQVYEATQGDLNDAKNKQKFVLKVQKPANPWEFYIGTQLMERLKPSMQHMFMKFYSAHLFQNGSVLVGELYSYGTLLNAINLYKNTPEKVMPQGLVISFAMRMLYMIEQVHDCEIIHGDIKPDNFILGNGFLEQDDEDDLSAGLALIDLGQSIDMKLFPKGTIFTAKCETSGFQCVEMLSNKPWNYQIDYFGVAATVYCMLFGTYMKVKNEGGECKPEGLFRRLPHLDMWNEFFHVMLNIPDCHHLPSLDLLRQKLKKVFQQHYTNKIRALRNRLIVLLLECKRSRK

In the case of `CCOc1cc(F)c(Cn2nc(-c3ncc(OCCN(C)C)c(Nc4ccncc4)n3)c3ccccc32)c(F)c1` [Example 4-8, 5-[2-(dimethyl-amino)ethoxy]-2-[1-(4-ethoxy-2,6-difluorobenzyl)-1H-indazol-3-yl]-N-(pyridin-4~ yl)pyrimidin-4-amine], the IC50 stood at 1200 nM in the assay on DU145 cells (Homo sapiens, DU-145, 96 h); 360 nM in the assay on HeLa-MaTu-ADR cells (96 h); 8 nM in assay [1]; 760 nM with Caco2 cells (Homo sapiens, Caco-2, 96 h); 1100 nM with NCI-H460 cells (Homo sapiens, NCI-H460, 96 h); 1300 nM in the assay on HeLa cells (Homo sapiens, 96 h). The IC50 with B16F10 cells (Mus musculus, B16-F10, 96 h) was determined as 570 nM.
Regarding `CCOc1cc(F)c(Cn2nc(-c3ncc(OCC(O)CN4CCCCC4)c(Nc4ccncc4)n3)c3ccccc32)c(F)c1` (stereo not shown) [Example 4-9, 1-({2-[1-(4-ethoxy-2,6-difluorobenzyl)-1H-indazol-3-yl]-4-(pyridin-4-ylamino)pyrimidin-5-yl}oxy)-3-(piperidin-1-yl)propan-2-ol], the IC50 in the assay on DU145 cells (Homo sapiens, DU-145, 96 h) is 1300 nM; with HeLa-MaTu-ADR cells (96 h), 860 nM; in assay [1] it was 5.4 nM; in the assay on Caco2 cells (Homo sapiens, Caco-2, 96 h) it was 780 nM; in the assay with NCI-H460 cells (Homo sapiens, NCI-H460, 96 h) it was 1300 nM; in the assay with HeLa cells (Homo sapiens, 96 h), 1700 nM. Besides, the IC50 with B16F10 cells (Mus musculus, B16-F10, 96 h) is 530 nM.
On to `CCOc1cc(F)c(Cn2nc(-c3ncc(OC[C@H]4CCC(=O)N4)c(Nc4ccncc4)n3)c3ccccc32)c(F)c1` [Example 4-19, (5R)-5-[({2-[1-(4-ethoxy-2,6-difluorobenzyl)-1H-indazol-3-yl]-4-(pyridin-4-ylamino)pyrimidin-5-yl}oxy)methyl] pyrrolidin-2-one], for which the IC50 turned out to be 2300 nM with DU145 cells (Homo sapiens, DU-145, 96 h); 10000 nM in the assay with HeLa-MaTu-ADR cells (96 h); 10 nM in assay [1]; 10000 nM with Caco2 cells (Homo sapiens, Caco-2, 96 h); 2200 nM in the assay on NCI-H460 cells (Homo sapiens, NCI-H460, 96 h); 1200 nM in the assay on HeLa cells (Homo sapiens, 96 h). The IC50 with B16F10 cells (Mus musculus, B16-F10, 96 h) amounted to 530 nM.
In the case of `CCOc1cc(F)c(Cn2nc(-c3ncc(OC[C@@H]4CCC(=O)N4)c(Nc4ccncc4)n3)c3ccccc32)c(F)c1` [Example 4-22, (5S)-5-[({2-[1-(4-ethoxy-2,6-difluorobenzyl)-1H-indazol-3-yl]-4-(pyridin-4-ylamino)pyrimidin-5-yl}oxy)methyl] pyrrolidin-2-one], the IC50 in the assay on DU145 cells (Homo sapiens, DU-145, 96 h) worked out at 3600 nM; in the assay on HeLa-MaTu-ADR cells (96 h), 10000 nM; in assay [1], 5.8 nM; in the assay on Caco2 cells (Homo sapiens, Caco-2, 96 h) it was 9500 nM; with NCI-H460 cells (Homo sapiens, NCI-H460, 96 h), 2100 nM; in the assay with HeLa cells (Homo sapiens, 96 h), 1900 nM. For the same compound, the IC50 with B16F10 cells (Mus musculus, B16-F10, 96 h) turned out to be 1200 nM.
As for `COc1ccc(Cn2nc(-c3nccc(Nc4ccncc4)n3)c3ccccc32)cc1` [Example 5-2, 2-[1-(4-methoxybenzyl)-1H-indazol-3-yl]-N-(pyridin-4-yl)pyrimidin-4-amine], the IC50 was determined as 3000 nM in the assay with DU145 cells (Homo sapiens, DU-145, 96 h); 3000 nM in the assay on HeLa-MaTu-ADR cells (96 h); 27 nM in assay [1]; 3000 nM in the assay with Caco2 cells (Homo sapiens, Caco-2, 96 h); 3000 nM in the assay with NCI-H460 cells (Homo sapiens, NCI-H460, 96 h); 710 nM in the assay with HeLa cells (Homo sapiens, 96 h). Moreover, the IC50 in the assay with B16F10 cells (Mus musculus, B16-F10, 96 h) was 3000 nM.
For the compound `C/C=C/c1cc(F)c(Cn2nc(-c3ncc(OC)c(Nc4ccncc4)n3)c3ccccc32)c(F)c1` [Example 6-2, 2-(1-{2,6-difluoro-4-[(1E)-prop-1-en-1-yl]benzyl}-1H-indazol-3-yl)-5-methoxy-N-(pyridin-4-yl)pyrimidin-4-amine], the IC50 was 1400 nM in the assay on DU145 cells (Homo sapiens, DU-145, 96 h); 1600 nM in the assay with HeLa-MaTu-ADR cells (96 h); 7.4 nM in assay [1]; 1200 nM in the assay on Caco2 cells (Homo sapiens, Caco-2, 96 h); 1700 nM with NCI-H460 cells (Homo sapiens, NCI-H460, 96 h); 1400 nM in the assay with HeLa cells (Homo sapiens, 96 h). Further, the IC50 with B16F10 cells (Mus musculus, B16-F10, 96 h) is 1100 nM.
For the compound `CCOc1cc(F)c(Cn2nc(-c3ncc(OC(F)F)c(N(c4ccncc4)C(F)F)n3)c3ccccc32)c(F)c1` [Example 10-2], the IC50 in the assay with DU145 cells (setting [2]) amounted to 1400 nM; with HeLa-MaTu-ADR cells (setting [3]), 590 nM; in assay [1] it was 420 nM; with Caco2 cells (setting [4]), 1100 nM; with NCI-H460 cells (setting [5]) it was 1500 nM; with HeLa cells (setting [6]), 1700 nM. Moreover, the IC50 with B16F10 cells (setting [7]) stood at 900 nM.
In the case of `OCC(O)COc1cnc(-c2nn(Cc3ccccc3F)c3ccccc23)nc1Nc1ccncc1` (stereo not shown) [Example 12-1, 3-({2-[1-(2-fluorobenzyl)-1H-indazol-3-yl]-4-(pyridin-4-ylamino)-pyrimidin-5-yl}oxy)propane-1,2-diol], the IC50 in the assay with DU145 cells (Homo sapiens, DU-145, 96 h) was 10000 nM; in the assay with HeLa-MaTu-ADR cells (96 h), 10000 nM; in assay [1], 11 nM; with Caco2 cells (Homo sapiens, Caco-2, 96 h), 10000 nM; in the assay with NCI-H460 cells (Homo sapiens, NCI-H460, 96 h), 10000 nM; with HeLa cells (Homo sapiens, 96 h), no less than 10000 nM. For the same compound, the IC50 with B16F10 cells (Mus musculus, B16-F10, 96 h) came to 10000 nM.
With `CCOc1cc(F)c(Cn2nc(-c3ncc(OCCO)c(Nc4ccncc4)n3)c3ccccc32)c(F)c1` [Example 13-1, 2-({2-[1-(4-ethoxy-2,6-difluorobenzyl)-1H-indazol-3-yl]-4-(pyridin-4-ylamino)pyrimidin-5-yl}oxy)ethanol], the IC50 in the assay on DU145 cells (setting [2]) came to 1600 nM; with HeLa-MaTu-ADR cells (setting [3]), 1300 nM; in assay [1], 3.3 nM; in the assay with Caco2 cells (setting [4]), 1200 nM; with NCI-H460 cells (setting [5]), 1300 nM; in the assay with HeLa cells (setting [6]), 1500 nM. Moreover, in the assay on B16F10 cells (setting [7]), the IC50 was 790 nM.
Consider `CCOc1cc(F)c(Cn2nc(-c3ncc(OC)c(Nc4ccncc4)n3)c3ccccc32)c(F)c1` [Example 15-1, 2-[1-(4-ethoxy-2,6-difluorobenzyl)-1H-indazol-3-yl]-5-methoxy-N-(pyridin-4-yl)pyrimidin-4-amine hydrochloride (1:1)], for which the IC50 in the assay on DU145 cells (DU145, 4 days, crystal violet) was found to be 1200 nM; in the assay on HeLa-MaTu-ADR cells (setting [8]) it was 1200 nM; in assay [1] it was 5.2 nM; with Caco2 cells (Caco2, 4 days, crystal violet), 1200 nM; with NCI-H460 cells (H460, 4 days, crystal violet), 2200 nM; with HeLa cells (setting [6]), 1400 nM. The IC50 in the assay with B16F10 cells (B16F10, 4 days, crystal violet) came to 760 nM.
For the compound `CNC(=O)c1ccc(Cl)c(Cn2nc(-c3ncc(OC)c(Nc4ccncc4)n3)c3ccccc32)c1Cl` [Example 20-1, 2,4-dichloro-3-({3-[5-methoxy-4-(pyridin-4-ylamino)pyrimidin-2-yl]-1H-indazol-1-yl}methyl)-N-methylbenzamide], the IC50 was 3000 nM in the assay on DU145 cells (setting [2]); 3000 nM in the assay with HeLa-MaTu-ADR cells (setting [3]); 200 nM in assay [1]; 3000 nM with Caco2 cells (setting [4]); 3000 nM in the assay with NCI-H460 cells (setting [5]); 190 nM in the assay on HeLa cells (setting [6]). Besides, the IC50 with B16F10 cells (setting [7]) stood at 2400 nM.
`CCOc1cc(F)c(Cn2nc(-c3ncc(OCC4CNCCO4)c(Nc4ccncc4)n3)c3ccccc32)c(F)c1` (stereo not shown) [Example 38-2]: the IC50 with DU145 cells (DU145, 4 days, crystal violet) was 1300 nM; in the assay on HeLa-MaTu-ADR cells (setting [8]) it was 1100 nM; in assay [1], 3.4 nM; in the assay on Caco2 cells (Caco2, 4 days, crystal violet), 600 nM; with NCI-H460 cells (H460, 4 days, crystal violet), 1100 nM; with HeLa cells (4 days, crystal violet), 1200 nM. The IC50 in the assay on B16F10 cells (B16F10, 4 days, crystal violet) was determined as 600 nM.
As for `COc1cnc(-c2nn(Cc3c(Cl)ccc(NC(C)=O)c3Cl)c3ccccc23)nc1Nc1ccncc1` [Example 41-1, N-[2,4-dichloro-3-({3-[5-methoxy-4-(pyridin-4-ylamino)pyrimidin-2-yl]-1H-indazol-1-yl}methyl)phenyl]acetamide], the IC50 in the assay on DU145 cells (setting [2]) was 10000 nM; in the assay with HeLa-MaTu-ADR cells (setting [3]), 10000 nM; in assay [1], 19 nM; in the assay on Caco2 cells (setting [4]) it was 3300 nM; in the assay on NCI-H460 cells (setting [5]), 10000 nM; with HeLa cells (setting [6]), 6000 nM. The IC50 with B16F10 cells (setting [7]) came to 1800 nM.

For the origin of these results see US10266548B2, “Substituted benzylindazoles for use as Bub1 kinase inhibitors in the treatment of hyperproliferative diseases” (Bayer Intellectual Property GmbH, priority 2011, dated 2019).
